Legend:
Sec residue in TrxR1 = molecular target: T1, Sec residue in TrxR1 (Homo sapiens, UniProt Q16881); test: BIAM labeling assay; format: biochemical; settings: pH 6.5; PepE 1, 5, 10 μM; DNCB 5 μM
T1 construct: purchased Abcam ab204206
T1 sequence (Q16881 1-499 isoform Q16881-5): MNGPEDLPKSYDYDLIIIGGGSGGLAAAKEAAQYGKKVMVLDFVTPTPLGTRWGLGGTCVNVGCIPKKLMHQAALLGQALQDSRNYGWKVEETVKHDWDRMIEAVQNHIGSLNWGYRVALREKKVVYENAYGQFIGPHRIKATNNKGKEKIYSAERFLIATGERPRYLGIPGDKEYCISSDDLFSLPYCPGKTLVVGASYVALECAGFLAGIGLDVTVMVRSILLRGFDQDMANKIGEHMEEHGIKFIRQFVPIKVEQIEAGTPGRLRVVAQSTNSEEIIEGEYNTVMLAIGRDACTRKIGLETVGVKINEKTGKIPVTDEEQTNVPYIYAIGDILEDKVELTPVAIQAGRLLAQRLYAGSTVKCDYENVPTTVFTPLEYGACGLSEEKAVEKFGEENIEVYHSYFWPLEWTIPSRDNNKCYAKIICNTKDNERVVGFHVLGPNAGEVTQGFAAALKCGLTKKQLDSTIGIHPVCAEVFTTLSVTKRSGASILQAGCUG
Procedure: To further assess whether the Sec residue in TrxR1 was the modified site of PepE. The BIAM labeling assay was performed according to previous report. Briefly, 100 μM BIAM stock solution in 100 mM Tris-HCl, 1 mM EDTA buffer (pH = 6.5) was freshly prepared before each test. The TrxR1 protein (1 μM) was incubated with different concentrations (1, 5, 10 μM) of PepE or 5 μM of DNCB (positive control) and DMSO (negative control) in 50 mM Tris-HCl, 1 mM EDTA buffer (pH = 7.5) and 400 μM NADPH at 37 °C. After incubation, 4 μL of the reaction mixture was withdrawn and added mixed with 20 μM of BIAM solution in 100 mM Tris-HCl, 1 mM EDTA assay buffer (pH = 6.5) for 30 min at 37 °C to allow selective alkylation of free Sec residues. The reaction was stopped by adding the IAA solution (final concentration 50 mM). The samples were then denatured in SDS buffer, boiled and subjected to SDS-PAGE and western-blotting on a 7.5% gel, and the separated proteins were transferred to nitrocellulose membrane. The enzymes labeled with BIAM were detected with HRP-conjugated streptavidin and enhanced chemiluminescence detection. The bands were analyzed using Gel-pro 32 software.

[1] = tested on: NBM CD34+ (including hBMSCs) cells; test: Release study of DMAPE in vitro, NBM CD34+ cells (UFLC-MS/MS); format: in vitro ADME, human; settings: 10 μM DMAPE, 24 h
Procedure: 1 × 10^5 cells (including sorted CD34^+ KG-1a cells and NBM cells) were seeded at 48-well plates (Corning, New York, USA) in the IMDM-based serum-free media for 1 h. The cells were then incubated with 10 μM DMAPE at 37 °C in the 5% CO2 incubator for 0, 12 or 24 h. The culture supernatant was collected by centrifugation at 3000 rpm for 10 min and evaporated to dryness at 30 °C using a CentriVap vacuum centrifugal concentrator. The resulting residue was reconstituted in 100 μL methanol, vortexed and centrifuged at 12000 rpm for 10 min. A 2 μL aliquot of the supernatant was injected for UFLC-MS/MS analysis (UFLC-MS/MS analysis method same as the pharmacokinetic study of DMAPE, see Additional method in Supplementary Materials).

KG-1a CD34+ cells = test: KG-1a-Luc CD34+ xenograft in NOD/SCID mice, bioluminescence; format: in vivo
Procedure: Six-week-old female NOD-SCID mice (obtained from the model animal research center of Nanjing University, Nanjing, China) were acclimated for 1 week and housed in groups of five. All animal studies were conducted under the guidelines approved by the Animal Care and Use Committee of the Nanjing University of Chinese Medicine (Nanjing, China). The mice were sublethally irradiated with 2.7 Gy before transplantation.
KG-1a cells tagged with a luciferase reporter gene (KG-1a-Luc) were obtained from Cobioer biotechnology Inc. (Nanjing, Jiangsu, China) and cultured in 90% IMDM supplemented with 10% FBS, 0.05 mM 2-Mercaptoethanol, and 1 μg/mL Puromycin, and grown at 37 °C in a 5% CO2 humidified incubator. CD34 positive cells were enriched (following the 2.3 method) and injected via the tail vein in a final volume of 0.2 mL PBS with 0.5% FBS. For analyzing the luciferase signal, 5 × 10^6 cells KG-1a-Luc cells were used for each recipient animal. Seven days after transplantation, mice with KG-1a-Luc implants were subjected to bioluminescent analysis based on the luciferase signal. Briefly, mice received D-luciferin phosphate solution (100 mg/kg) intravenously 10 min prior to imaging. They were then anesthetized with isoflurane inhalation and imaged using a Xenogen IVIS scanner (PerkinElmer, Waltham, MA, USA). The next day, mice showing successful implantations were randomly divided into the control, DMAPE low dose, DMAPE high dose, and Ara-C treatment groups (n = 5 in each group), which received daily i. g. saline buffer, DMAPE phosphate salt 25 mg/kg, DMAPE phosphate salt 50 mg/kg and Ara-C (50 mg/kg), respectively. The growth of KG-1a-Luc cells was monitored every week by their luciferase signal. Five weeks after the implantation, all mice were sacrificed and their livers, kidneys, and bone marrow were excised for ex vivo bioluminescent imaging. The bioluminescent signal intensity was all quantified using the Living Image software (version 4.2, Carliper Life Science, Inc., Hopkinton, MA, USA) and is presented as photons/second/cm^2/sr (sr denotes steradian).

[2] = design: method as in earlier work; settings: within 24 h; cited from earlier work

SMILES	BIAM alkylation of Sec residue of TrxR1 (Sec residue in TrxR1)	DMAPE remained in the culture media [1]	growth and metastasis of AML CD34+ cells in NOD/SCID mice (KG-1a CD34+ cells; 25 mg/kg/d)	luciferase signal in the bone marrow (KG-1a CD34+ cells; 50 mg/kg i.g. daily, week 5, ex vivo imaging)	overall luciferase signal in the liver and kidney, saline vs treated (KG-1a CD34+ cells; 50 mg/kg i.g. daily, week 5, P < 0.001 kidneys, P < 0.01 livers)	luciferase signal intensities compared to the saline-treated mice (KG-1a CD34+ cells; 25 and 50 mg/kg i.g. daily, P < 0.05 at three weeks, P < 0.01 at five weeks)	stability in the cell cultural media (without cells) [2]
C=C1C(=O)OC[C@H]1C(c1cc(OC)c2c(c1)OCO2)c1cc(OC)c2c(c1)OCO2 [PepE, Peperomin E]	significantly block						
COc1cc(C(c2cc(OC)c3c(c2)OCO3)[C@@H]2COC(=O)[C@H]2CN(C)CCO)cc2c1OCO2 [DMAPE, (2S,3S)-6-Methyl (hydroxyethyl) amino-2,6-dihydropeperomin E]		about half	significantly suppressed	almost no luciferase signal was detected	significantly stronger in the saline-treated group	significantly weaker	stable
